Patent US12414994B2, “Compositions comprising lopinavir and treatment of conditions” (DOUGLAS PHARMACEUTICALS LIMITED, priority 2019, dated 2025)
Where two headings read alike, the source gives them in different places.

Legend:
[1] = system: HSV2 strain HG52; assay: HSV2 replication assay in N-Tert keratinocytes (anti-HSV immunostaining); format: cell-based; conditions: for effect against HSV2 replication: FIG. 2B
Method: (§1) Cell Culture; Telomerase immortalised N-Tert human foreskin Keratinocyes were maintained in standard T-75 tissue culture flasks (Corning, USA) in 25 ml of Keratinocyte serum-free medium (KSFM) supplemented with L-glutamine, 0.2 ng/ml epidermal growth factors (EGF) and 25 μg/mL bovine pituitary extract (BPE) (Gibco, Invitrogen, UK). These were maintained at 37° C. in a humidified atmosphere of 5% CO2 and the medium was changed every 2 days as required. For routine sub-culture the medium was aspirated, cells washed with PBS (Gibco-Invitrogen, UK) and 2 ml of Cell Culture Grade Trypsin 0.05% solution with EDTA (Gibco-Invitrogen, UK) added to each flask which was incubated at 37° C./5% CO2 for 10 minutes. A 10 ml aliquot of KSFM plus 10% foetal bovine serum (FBS) (Gibco-Invitrogen, UK) was then added and the cells centrifuged at 6000 g for 6 minutes. The medium was aspirated and cells washed with 10 mls of PBS (Gibco Invitrogen, UK) followed by re-suspension in 10 mls of fresh KSFM and final a cell count carried out. HSV1 & 2 Replication Assays; T25 flasks (Corning, USA) were each seeded with 600,000 N-Tert cells in serum-free KSFM plus supplements and incubated at 37° C./5% CO2 until confluent (Approximately 72 hours). The medium was then aspirated and cells infected with either 25 μl aliquot of HSV2 strain HG52, 1 μl of HSV1 strain 17+ or a 5 μl aliquot of the acyclovir resistant HSV2 strain 132349 ACV-res (Public Health England, Porton Down, UK) in 0.5 ml of serum-free KSFM plus supplements for a period of 2 hours at 37° C./5% CO2. The volume of each HSV strain stock used was empirically determined as the amount required to produce pronounced cytopathic changes in infected control flasks over the time course of the experiment. A 9.5 ml aliquot of KSFM plus supplements was then added to each flask and cells infected with the HG52 or 17+ strains incubated overnight whereas cell infected with the 132349 ACV-res strain were incubated for 5 hours at 37° C./5% CO2. Stock solutions of each active pharmaceutical ingredient (API) were freshly prepared every week from dry powder (Douglas Pharna, NZ) dissolved volumetrically in DMSO at 100 mM and stored at −20° C. Appropriate final dilutions of these API stocks solutions were made in KSFM plus supplements such that the same volume of DMSO (2 μl) was added to each infected flask. Where mixed APIs were used, concentrations were calculated as w/w ratios. API treated HSV2 HG52 infected cells were then incubated for 48 hours, HSV1 17+ infected cells were incubated for 8 hours and HSV-2 132349 ACV-res infected cells were incubated for 12 hours prior to harvesting for immunostaining. A concentration of 5 μM Acyclovir (VWR International, UK) was also added as a comparator to flasks infected with HSV-2 132349 ACV-res in order to verify the acyclovir resistant nature of the strain. […] Harvesting & Immunostaining; Growth medium was decanted from each flask and placed into 15 ml universal tubes (Corning, USA) and the cells rinsed with 1 ml of 1×PBS which was pooled with the growth medium. A 1 ml aliquot of NB Cell Culture Grade Trypsin 0.05% solution with EDTA was added to each T-25 flask and cells incubated at 37° C./5% CO2 for 10 minutes. A 1 ml aliquot of FBS was added to the decanted growth medium plus PBS from the previous step and 2 ml of this was then added to each flask to inactivate the trypsin. The trypsinised cells were then pooled with the decanted growth medium and an aliquot taken for analysis of cell viability using Via-1 cassette NC3000 cell cytometer assays (CheoMetec A/S, Denmark). The remaining cells were centrifuged at 6000 g for 5 minutes, the medium aspirated and the cells re-suspended and washed with 10 ml of PBS followed by re-centrifugation. Finally the cells were re-suspended in 70% of ice-cold ethanol, stored overnight at 4° C. and a volume containing 60,000 cells was aliquoted into 1.5 ml Eppendorf tubes and centrifuged for 5 minutes at 5000 rpm. […]

[2] = system: HSV1 strain 17+; assay: HSV1 replication assay in N-Tert keratinocytes (anti-HSV immunostaining); format: cell-based; conditions: for effect on HSV1 replication: pre-treatment virus incubation reduced by 2 hours, FIG. 5B; for effects on HSV1 replication: FIG. 4B
Method: as §1, with “trypsin.” for “trypsin. The trypsinised cells were then pooled with the decanted growth medium and an aliquot taken for analysis of cell viability using Via-1 cassette NC3000 cell cytometer assays (CheoMetec A/S, Denmark). The remaining cells were centrifuged at 6000 g for 5 minutes, the medium aspirated and the cells re-suspended and washed with 10 ml of PBS followed by re-centrifugation. Finally the cells were re-suspended in 70% of ice-cold ethanol, stored overnight at 4° C. and a volume containing 60,000 cells was aliquoted into 1.5 ml Eppendorf tubes and centrifuged for 5 minutes at 5000 rpm.”

[3] = system: acyclovir resistant HSV2 strain 132349 ACV-res; assay: Acyclovir resistant HSV2 replication assay in N-Tert keratinocytes; format: cell-based
Method: (§2) Cell Culture; Telomerase immortalised N-Tert human foreskin Keratinocyes were maintained in standard T-75 tissue culture flasks (Corning, USA) in 25 ml of Keratinocyte serum-free medium (KSFM) supplemented with L-glutamine, 0.2 ng/ml epidermal growth factors (EGF) and 25 μg/mL bovine pituitary extract (BPE) (Gibco, Invitrogen, UK). These were maintained at 37° C. in a humidified atmosphere of 5% CO2 and the medium was changed every 2 days as required. For routine sub-culture the medium was aspirated, cells washed with PBS (Gibco-Invitrogen, UK) and 2 ml of Cell Culture Grade Trypsin 0.05% solution with EDTA (Gibco-Invitrogen, UK) added to each flask which was incubated at 37° C./5% CO2 for 10 minutes. A 10 ml aliquot of KSFM plus 10% foetal bovine serum (FBS) (Gibco-Invitrogen, UK) was then added and the cells centrifuged at 6000 g for 6 minutes. The medium was aspirated and cells washed with 10 mls of PBS (Gibco Invitrogen, UK) followed by re-suspension in 10 mls of fresh KSFM and final a cell count carried out. HSV1 & 2 Replication Assays; T25 flasks (Corning, USA) were each seeded with 600,000 N-Tert cells in serum-free KSFM plus supplements and incubated at 37° C./5% CO2 until confluent (Approximately 72 hours). The medium was then aspirated and cells infected with either 25 μl aliquot of HSV2 strain HG52, 1 μl of HSV1 strain 17+ or a 5 μl aliquot of the acyclovir resistant HSV2 strain 132349 ACV-res (Public Health England, Porton Down, UK) in 0.5 ml of serum-free KSFM plus supplements for a period of 2 hours at 37° C./5% CO2. The volume of each HSV strain stock used was empirically determined as the amount required to produce pronounced cytopathic changes in infected control flasks over the time course of the experiment. A 9.5 ml aliquot of KSFM plus supplements was then added to each flask and cells infected with the HG52 or 17+ strains incubated overnight whereas cell infected with the 132349 ACV-res strain were incubated for 5 hours at 37° C./5% CO2. […] Where mixed APIs were used, concentrations were calculated as w/w ratios. […]

[4] = system: herpesvirus; conditions: Gantt et al. (2011) Table 1; cited from earlier work
[5] = cited from earlier work
[6] = system: HSV-2 132349 ACV-res; conditions: Houston et al (2017) Table 2; cited from earlier work
[7] = system: HSV1 17+ strain; conditions: Houston et al (2017) Table 2; cited from earlier work
[8] = system: labial or skin HSV lesions; conditions: episodic topical application, cited from earlier work
[9] = system: uninfected N-Tert keratinocytes; assay: Cytotoxicity assay (Via-1 cassette viability); format: cell-based; conditions: human, 48 h
Method: as §2

Structure (SMILES): Cc1cccc(C)c1OCC(=O)N[C@@H](Cc1ccccc1)[C@@H](O)C[C@H](Cc1ccccc1)NC(=O)[C@H](C(C)C)N1CCCNC1=O (relative stereo) [lopinavir, [1S-[1R*(R*), 3R*, 4R*]]-N-[4-[(2,6-dimethylphenoxy0acetyl]amino]-3-hydroxy-5-phenyl-1-(phenylmethyl)pentyl]tetrahydro-alpha-(1-methylethyl)-2-oxo-1(2H)-pyrimidineacetamide]
- effect against HSV2 replication compared with nelfinavir ([1]; 20 μM): more effective against HSV2 replication than either 2 or 5 μM nelfinavir
- HSV2 positive cells (anti-HSV antibody immunostaining images) ([1]; 20 μM, 48 hours, FIG. 1B): Very few HSV2 positive cells
- cytopathic effects of HSV2 infection (phase contrast morphology) ([1]; 20 μM, 48 hours, N-Tert keratinocytes, FIG. 1A): virtually no cytopathic effects
- percentage of virus positive cells (quantitative analysis of immune staining) ([1]; 20 μM, FIG. 1C): marked reduction
- effect on HSV1 replication ([2]; 20 μM): by far the greatest activity
- number of virus positive cells ([3]; 10 μM, FIG. 6B (DMSO control 50%)): 10%
- number of virus positive cells ([3]; 20 μM, FIG. 6B (DMSO control 50%)): 5%
- effect on herpesvirus replication [4]: ineffective
- solubility in water [5]: virtually insoluble in water

Structure (SMILES): CC(C)c1nc(CN(C)C(=O)N[C@H](C(=O)N[C@@H](Cc2ccccc2)C[C@H](O)[C@H](Cc2ccccc2)NC(=O)OCc2cncs2)C(C)C)cs1 (relative stereo) [ritonavir, 10-Hydroxy-2-methyl-5-(1-methylethyl)-1-[2-(1-methylethyl)-4-thiazolyl]-3,6-dioxo-8,11bis(phenylmethyl)-2,4,7,12-tetraazatridecan-13-oic acid, 5-thiazolylmethylester, [5S-(5R*,8R*,10R8,11R*)]]
- effect on herpesvirus replication [4]: ineffective

Structure (SMILES): Nc1nc2c(ncn2COCCO)c(=O)[nH]1 [Acyclovir, acyclovir]
- number of virus positive cells ([3]; Acyclovir, FIG. 6B): did not, as expected reduce the number of virus positive cells
- concentration required for toxicity against this strain [6]: > 100 µM
- concentration that proved very effective [7]: < 0.8 µM
- improvement of healing times ([8]; 3-5% acyclovir cream): approximately 10%

Structure (SMILES): Cc1c(O)cccc1C(=O)N[C@@H](CSc1ccccc1)[C@H](O)CN1C[C@H]2CCCC[C@H]2C[C@H]1C(=O)NC(C)(C)C [nelfinavir]
- effect against HSV2 replication ([1]; 2 μM): less effective against HSV2 replication than 10 μM nelfinavir
- effect against HSV2 replication ([1]; 5 μM): less effective against HSV2 replication than 10 μM nelfinavir
- effect against HSV2 replication ([1]; 10 μM): as effective as 20 μM 12:1 Lop/Rit
- effects on HSV1 replication ([2]; 2 μM): very modest effects
- effect on HSV1 replication ([2]; 2 μM): no discernible effect
- effects on HSV1 replication ([2]; 10 μM): very modest effects
- effect on HSV1 replication ([2]; 10 μM): no discernible effect
- concentrations with significant toxic effects on eukaryotic cells [9]: above 2 μM
- cell viability ([9]; 10 μM): < 60%
- cell viability ([9]; 20 μM): about 40%
- effect on herpesvirus replication [4]: inhibitory effect on viruses

Structure (SMILES): Nc1nc2c(ncn2CCC(CO)CO)c(=O)[nH]1 [penciclovir]
- improvement of healing times ([8]; 1% penciclovir cream): approximately 10%
